Assays:
[1] = tested on: EC (ECOLI, Escherichia coli); experiment: Preservative challenge test, nonionic emulsion; type: cell-based
Description: (§1) A typical cosmetic emulsion was prepared for microbiological challenge testing and predetermined admixtures of a methylol compound and IPBC were added at various use levels. The emulsion thus prepared had the following composition:
(§2) The challenge tests were carried out using the following microorganisms: SA, ECOLI, PSA, PC, AN and CAN, in this manner. 50 g aliquots of the test emulsion containing various amounts of the preservative admixture were inoculated with approximately 10^7–10^8 of the challenge organisms. The test samples then were stirred to disperse the challenge inoculum. The samples were incubated and assayed at 48 hours, 7, 14, 21 and 28 days. The assays were performed on 1 g of the test sample by serially diluting 10^1 to 10^6 of the original concentration. The plating medium for bacteria was Letheen agar and for fungi it was low pH Mycophil agar with Tween 20. Each plated sample was incubated for 48 hours at 37° C. for bacteria, 5 days at 25° C. for mold, and 3 days at 25° C. for fungi. After incubation, readings of the number of colonies per milliliter (cfu/ml) were made. At 21 days the test product was reinoculated with half of the original inoculum.

CAN (Candida albicans) = experiment: Preservative challenge test, nonionic emulsion; type: cell-based
Description: as §1, §2

BC (B. cepacia) = experiment: Preservative challenge test, screening emulsion; type: cell-based, Burkholderia cepacia
Description: as §1
To prepare the emulsion, Phases A and B were heated separately to 75°–80° C. Phase A then was added to Phase B with mixing. The mixture then was cooled to 55°–60° C. At this point the desired amount of the preservative admixture was added and the product was cooled to 50° C. while stirring. The citric acid solution then was added to adjust the pH and the mixture was stirred until a temperature of 30° C. was reached.
as §2

O=C1C(N(CO)C(=O)NCO)N(CO)C(=O)N1CO (stereo not shown) [Germall II]
cfu/ml, 48 hrs ([1]; 2000 ppm): <10 cfu/ml | cfu/ml, 7 days ([1]; 2000 ppm): <10 cfu/ml | cfu/ml, 14 days ([1]; 2000 ppm): <10 cfu/ml | cfu/ml, 21 days ([1]; 2000 ppm): <10 cfu/ml | cfu/ml, 28 days ([1]; 2000 ppm): <10 cfu/ml | cfu/ml, 48 hrs ([1]; 4000 ppm): <10 cfu/ml | cfu/ml, 7 days ([1]; 4000 ppm): <10 cfu/ml | cfu/ml, 14 days ([1]; 4000 ppm): <10 cfu/ml | cfu/ml, 21 days ([1]; 4000 ppm): <10 cfu/ml | cfu/ml, 28 days ([1]; 4000 ppm): <10 cfu/ml | cfu/ml, 48 hrs (CAN (Candida albicans); 2000 ppm): 320,000 cfu/ml | cfu/ml, 7 days (CAN (Candida albicans); 2000 ppm): 720,000 cfu/ml | cfu/ml, 14 days (CAN (Candida albicans); 2000 ppm): 650,000 cfu/ml | cfu/ml, 21 days (CAN (Candida albicans); 2000 ppm): 730,000 cfu/ml | cfu/ml, 28 days (CAN (Candida albicans); 2000 ppm): >1E6 cfu/ml | cfu/ml, 48 hrs (CAN (Candida albicans); 4000 ppm): 50 cfu/ml | cfu/ml, 7 days (CAN (Candida albicans); 4000 ppm): 10,000 cfu/ml | cfu/ml, 14 days (CAN (Candida albicans); 4000 ppm): 620,000 cfu/ml | cfu/ml, 21 days (CAN (Candida albicans); 4000 ppm): 460,000 cfu/ml | cfu/ml, 28 days (CAN (Candida albicans); 4000 ppm): >1E6 cfu/ml | cfu/ml, 48 hrs (BC (B. cepacia); 250 ppm): <10 cfu/ml | cfu/ml, 7 days (BC (B. cepacia); 250 ppm): <10 cfu/ml | cfu/ml, 14 days (BC (B. cepacia); 250 ppm): <10 cfu/ml | cfu/ml, 21 days (BC (B. cepacia); 250 ppm): <10 cfu/ml | cfu/ml, 28 days (BC (B. cepacia); 250 ppm): <10 cfu/ml | cfu/ml, 48 hrs (BC (B. cepacia); 500 ppm): <10 cfu/ml | cfu/ml, 7 days (BC (B. cepacia); 500 ppm): <10 cfu/ml | cfu/ml, 14 days (BC (B. cepacia); 500 ppm): <10 cfu/ml | cfu/ml, 21 days (BC (B. cepacia); 500 ppm): <10 cfu/ml | cfu/ml, 28 days (BC (B. cepacia); 500 ppm): <10 cfu/ml | cfu/ml, 48 hrs (BC (B. cepacia); 1000 ppm): <10 cfu/ml | cfu/ml, 7 days (BC (B. cepacia); 1000 ppm): <10 cfu/ml | cfu/ml, 14 days (BC (B. cepacia); 1000 ppm): <10 cfu/ml | cfu/ml, 21 days (BC (B. cepacia); 1000 ppm): <10 cfu/ml | cfu/ml, 28 days (BC (B. cepacia); 1000 ppm): <10 cfu/ml | cfu/ml, 48 hrs (BC (B. cepacia); 2000 ppm): <10 cfu/ml | cfu/ml, 7 days (BC (B. cepacia); 2000 ppm): <10 cfu/ml | cfu/ml, 14 days (BC (B. cepacia); 2000 ppm): <10 cfu/ml | cfu/ml, 21 days (BC (B. cepacia); 2000 ppm): <10 cfu/ml | cfu/ml, 28 days (BC (B. cepacia); 2000 ppm): <10 cfu/ml
